Consider two compounds from US8337907B2, “Use of volatile oil from plants in preparing medicaments for preventing and treating diabetes” (priority 2007, dated 2012).

Where two headings read alike, the source gives them in different places.

The conditions of series [1]: cited from earlier work.
Series [2] concerns type 1 diabetes rat model (IDDM). Kind of series: test of type 1 diabetes rat model (streptozotocin, day 3-6 after injection). The class given is in vivo, rats. To be noted: 2.4 ml/kg intubated, 2 hours after dose. The text has this: Establishment of a type 1 diabetes rat test model. Recent years, more people have definitely expressed that viewed streptozotocin-induced of diabetes test model. Although, it is a model of type 1 diabetes in principle, but can using as a model of type 2 diabetes.

Series [3] relates to type 2 diabetes rat model. Kind of series: test of type 2 diabetes rat model (streptozotocin, fast-generated NIDDM model). The class given is in vivo, Wistar rats. Set-up: unit not given here. The settings on record: 2.4 ml/kg intubated, fasting 4 hours, blood 2 hours after dose; before treatment 27.14 ± 1.154; p<0.01.
For another series, the system named is type 2 diabetes patients. The settings on record: for postprandial blood glucose peak at breakfast: 0.9 ml at three meals daily, 7 days.
The subject of series [4] is drug-induced diabetic rats. Briefly: blood glucose in drug-induced diabetic rats, summary statement. The class given is in vivo. To be noted: oral 0.8-2.4 ml/kg, within 0.5-2 hours. From the text: The present invent can reduce fasting blood glucose of that severe case streptozotocin-induced rats of type 1 and type 2 diabetes.
For series [5], the system named is delayed type diabetic Wistar rat model (type 1 diabetes). Kind of series: delayed type streptozotocin plus CFA/IFA type 1 diabetes rat model. To be noted: table: d-limonene 0.8 ml/kg; fasting 4 hours, 2 hours after dose; before treating 24.4 ± 2.958; p<0.01. The class given is in vivo, Wistar rats. Set-up: unit not given here.
In another series the test system is healthy rats. Briefly: blood glucose of healthy rats. The settings on record: rat, in vivo.
Another series has as its system healthy volunteers. Kind of series: test to healthy volunteers. The class given is in vivo, human. The settings on record: for postprandial blood glucose peak at breakfast: 0.9 ml at three meals daily, 7 days. On the procedure:
A person, Healthy have not any disease.
A person, healthy without any disease. fasting blood glucose was waved in 5.0-5.4 mmol/L (79-96 mg/dl), in postprandial blood glucose 8-12.2 mmol/L ([…]) between. Abnormal glucose tolerance test.

The conditions of series [6]: water, ethanol; cited from earlier work.
The mark [7] stands for this setting: Example 6 patient, treatment for 12 weeks.
[8] abbreviates: Example 7 patient, 7 days treatment.

Description for type 2 diabetes patients: Patient keep measurable middling food and drink in the interim.

Turning to `C=C(C)[C@H]1CC=C(C)CC1` [d-limonene, (4R)-1-methyl-4-prop-1-en-2-ylcyclohexene], the “absorption from the gastrointestinal” value in series [1] (after oral administration) is “absorbed rapidly”. Also, in [1] (within 48 hours), the “absorbed drug excreted by the urethra” value is on record as 75-95%. Also, in [2] (IDDM group 25.27 ± 2.632, p<0.01), the “Blood glucose, First day” value came to 20.26 ± 5.039 mmol/L. In [2] (IDDM group 25.97 ± 2.966, p>0.05), the “Blood glucose, Four day” value turned out to be 23.32 ± 4.891 mmol/L. Also, the “Blood glucose, Third day” value in series [2] (IDDM group 26.08 ± 3.896, p<0.05) came out at 21.88 ± 5.754 mmol/L. For the same compound, the “Blood glucose, 1-4 days Average” value in series [2] (IDDM group 26.17 ± 2.858, p<0.05) was 21.89 ± 5.230 mmol/L. In addition, the “Blood glucose, Second day” value in series [2] (IDDM group 27.36 ± 1.243, p<0.01) is 22.08 ± 5.421 mmol/L. The “fasting glucose after treatment” value in series [3] is given as 19.39 ± 6.064. The “postprandial blood glucose peak at breakfast” value in the series with type 2 diabetes patients (Example 6 patient, before: under 15.6 mmol/L) is 11.8 mmol/L; in the series with type 2 diabetes patients (Example 7 patient, before: maximum 23 mmol/L), 18.7 mmol/L; in the series on healthy volunteers (Example 8, healthy person), 6.3 to 8.4 mmol/L; in the series with healthy volunteers (Example 9, person, abnormal glucose tolerance test, before 8-12.2 mmol/L), 10.3 to 11.7 mmol/L. Also, the “hypoglycemic reaction without food” value in the series with type 2 diabetes patients (Example 6 patient, 6-8 hours after the meal, after 12 weeks) is listed as “have not hypoglycemic reaction”. The “time of postprandial blood glucose peak” value with type 2 diabetes patients (Example 6 patient, 7 days treatment) was determined as 1.25 h; in the series on type 2 diabetes patients (setting [8]) it was 1.25 h; in the series with healthy volunteers (Example 8, healthy person) it was 0.5 h; in the series with healthy volunteers (Example 9, person), 0.5 h. This compound also gave a peak value time in the series on type 2 diabetes patients (setting [7]) of 0.75 h. Moreover, in the series on type 2 diabetes patients (setting [7]), the “postprandial blood glucose peak value” is on record as 10.4 mmol/L. Moreover, the “blood glucose level average reduce, before to after treating” value with type 2 diabetes patients (setting [8]) was found to be 6.99 mmol/L. Also, the “effect on postprandial blood glucose levels” value in the series on type 2 diabetes patients (type 2 diabetes patients, 0.9 ml after three meals daily) is “clear and stably reduce postprandial blood glucose levels”. Also, in series [4], the “effect on blood glucose level” value was “blood glucose level reduce a lot”. Besides, in [5], the “fasting glucose after treating” value is recorded as 17.45 ± 1.886. Further, the “effect on blood glucose of healthy rats” value with healthy rats is “do not reduce blood glucose of healthy rats”. Besides, the “blood glucose compared before and after treatment” value with healthy volunteers (Example 8, healthy person) is “blood glucose basically unchanged”; in the series with healthy volunteers (Example 9, person), “blood glucose basically unchanged”. For the same compound, the “effect on postprandial or fasting blood glucose level in healthy” value in the series on healthy volunteers (human, in vivo) is on record as “do not reduce postprandial or fasting blood glucose level”.

For the compound `C=C(C)C1CC=C(C)CC1` (stereo not shown) [Limonene, 1-methyl-4-prop-1-en-2-yl-cyclohexene], the “Perilla acid methyl ester and Dihydrotestosterone Perilla acid methyl ester in plasma” value in series [1] (from initial limonene, after oral administration) is 5%. Further, in series [1] (in vivo), the “eliminated in the CO2 exhaled” value is reported as 2% and the “eliminated in the dejecta” value is 5%. Besides, in series [1] (of limonene in plasma), the “converted to primary metabolites Dihydrotestosterone acid Perilla and Perilla acid” value was “about 35%”. In addition, the “converted to limonene 1,2-diol” value in [1] (of the initial volume) is reported as “about 18%”. Besides, the “eliminated in the urine” value in [1] (within 24 hours) is “about 60%”. For the same compound, the solubility entry in [6] is listed as “do not in water but in ethanol”.
